Read-outs that look alike come from different tables or passages of the source.
How the values were obtained:
[1] = test system: mutant Huntington (HTT) protein; assay: HTT Mutant HTRF iPSC assay (mHTT protein lowering); assay type: cell-based; settings: human iPSC derived from a HTT patient with a poly-Q49 mutation
mHTT protein [2] = settings: HD patient cells; cited from earlier work
mHTT protein [3] = settings: HD mouse model; cited from earlier work
mHTT protein [4] = settings: blood samples from SMA Type I patients dosed orally; cited from earlier work

SMILES | IC50 [1] [nM] | other results
COc1cc(-c2cc(C(F)F)c3nc(C)cn3n2)cn2cc([C@H]3[C@@H]4CN(C)C[C@@H]43)nc12 [Compound 540, 8-(difluoromethyl)-6-[8-methoxy-2-[3-methyl-3-azabicyclo[3.1.0]hexan-6-yl]imidazo[1,2-a]pyridin-6-yl]-2-methyl-imidazo[1,2-b]pyridazine] | < 100 | 
COc1cc(-c2cc(C)c3nc(C)nn3n2)cn2cc([C@H]3[C@@H]4CN(C)C[C@@H]43)nc12 [Compound 541, 6-(8-methoxy-2-((1R,5S,6r)-3-methyl-3-azabicyclo[3.1.0]hexan-6-yl)imidazo[1,2-a]pyridin-6-yl)-2,8-dimethyl-[1,2,4]triazolo[1,5-b]pyridazine] | 100 to 1000 | 
COc1cc(-c2cc3c(C)nc(C)cn3n2)cn2cc([C@H]3[C@@H]4CN(C)C[C@@H]43)nc12 [Compound 542, 2-(8-methoxy-2-((1R,5S,6r)-3-methyl-3-azabicyclo[3.1.0]hexan-6-yl)imidazo[1,2-a]pyridin-6-yl)-4,6-dimethylpyrazolo[1,5-a]pyrazine] | 100 to 1000 | 
COc1cc(-c2cc(F)c3nn(C)cc3c2)cc2cn(C3CCNCC3)nc12 [Compound 543, 7-fluoro-7′-methoxy-2-methyl-2′-(piperidin-4-yl)-2H,2′H-5,5′-biindazole] | 1000 to 9000 | 
COc1cc(-c2cc(C)c3nn(C)cc3c2)cc2cn(C3CCNCC3)nc12 [Compound 544, 7-methoxy-2′,7′-dimethyl-2-(piperidin-4-yl)-2H,2′H-5,5′-biindazole] | 1000 to 9000 | 
COc1cc(-c2cc(F)c3nc(C)cn3c2)cc2cn(C3CCNCC3)nc12 [Compound 545, 5-(8-fluoro-2-methylimidazo[1,2-a]pyridin-6-yl)-7-methoxy-2-(piperidin-4-yl)-2H-indazole] | 1000 to 9000 | 
COc1cc(-c2cc(C#N)c3nc(C)cn3c2)cc2cn(C3CCNCC3)nc12 [Compound 546, 6-(7-methoxy-2-(piperidin-4-yl)-2H-indazol-5-yl)-2-methylimidazo[1,2-a]pyridine-8-carbonitrile] | 1000 to 9000 | 
COc1cc(-c2cc(C)c3nc(C)nn3c2)cc2cn(C3CCNCC3)nc12 [Compound 547, 6-(7-methoxy-2-(piperidin-4-yl)-2H-indazol-5-yl)-2,8-dimethyl-[1,2,4]triazolo[1,5-a]pyridine] | 1000 to 9000 | 
COc1cc(-c2cc(F)c3nc(C)cn3c2)cc2nn(C3CCNCC3)nc12 [Compound 548, 6-(8-fluoro-2-methyl-imidazo[1,2-a]pyridin-6-yl)-4-methoxy-2-(4-piperidyl)benzotriazole] | 1000 to 9000 | 
Cc1cn2nc(-c3cc(OC(F)(F)F)c4nc(C5CCNCC5)cn4c3)cc(C)c2n1 [Compound 549, 2,8-dimethyl-6-(2-(piperidin-4-yl)-8-(trifluoromethoxy)imidazo[1,2-a]pyridin-6-yl)imidazo[1,2-b]pyridazine] | 100 to 1000 | 
Cc1cn2nc(-c3ccc4nc(C5CCNCC5)oc4c3)cc(C)c2n1 [Compound 550, 6-(2,8-dimethylimidazo[1,2-b]pyridazin-6-yl)-2-(4-piperidyl)-1,3-benzoxazole] | 100 to 1000 | 
Cc1cn2nc(-c3ccc4nc(C5CCNCC5)cn4c3)cc(C)c2n1 [Compound 551, 2,8-dimethyl-6-[2-(4-piperidyl)imidazo[1,2-a]pyridin-6-yl]imidazo[1,2-b]pyridazine] | < 100 | 
Cc1cn2nc(-c3ccc4nc(C5CCN(C)CC5)cn4c3)cc(C)c2n1 [Compound 552] | 100 to 1000 | 
Cc1nc2ccc(-c3ccc4nc([C@H]5[C@@H]6CN(C)C[C@@H]65)cn4c3)nn2n1 [Compound 553, 2-methyl-6-(2-((1R,5S,6r)-3-methyl-3-azabicyclo[3.1.0]hexan-6-yl)imidazo[1,2-a]pyridin-6-yl)-[1,2,4]triazolo[1,5-b]pyridazine] | 100 to 1000 | 
Cc1cn2nc(-c3ccc4nc([C@H]5[C@@H]6CN(C)C[C@@H]65)cn4c3)cc(C)c2n1 [Compound 554, 2,8-dimethyl-6-(2-((1R,5S,6r)-3-methyl-3-azabicyclo[3.1.0]hexan-6-yl)imidazo[1,2-a]pyridin-6-yl)imidazo[1,2-b]pyridazine] | 100 to 1000 | 
Cc1cn2nc(-c3cc(C)c4nc(C5CCNCC5)cn4c3)cc(C)c2n1 [Compound 555, 2,8-dimethyl-6-(8-methyl-2-(piperidin-4-yl)imidazo[1,2-a]pyridin-6-yl)imidazo[1,2-b]pyridazine] | 100 to 1000 | 
Cc1cn2nc(-c3cc(Cl)c4nc(C5CCNCC5)cn4c3)cc(C)c2n1 [Compound 556, 6-(8-chloro-2-(piperidin-4-yl)imidazo[1,2-a]pyridin-6-yl)-2,8-dimethylimidazo[1,2-b]pyridazine] | 100 to 1000 | 
Cc1cn2nc(-c3ccc4nc(C5CCNCC5)c(F)n4c3)cc(C)c2n1 [Compound 557] | < 100 | 
Cc1cn2nc(-c3cc(F)c4nc(C5CCC6(CC5)CC(N)C6)[nH]c4c3)cc(C)c2n1 (stereo not drawn) [Compound 559, 7-(6-(2,8-dimethylimidazo[1,2-b]pyridazin-6-yl)-4-fluoro-1H-benzo[d]imidazol-2-yl)spiro[3.5]nonan-2-amine] | 100 to 1000 | 
Cc1nc2ccc(-c3cc(F)c4nn(C5CCNCC5)cc4c3)nn2n1 [Compound 561, 6-(7-fluoro-2-(piperidin-4-yl)-2H-indazol-5-yl)-2-methyl-[1,2,4]triazolo[1,5-b]pyridazine] | < 100 | 
Cc1nc2ccc(-c3cc(F)c4nc(C5CCNCC5)cn4c3)nn2n1 [Compound 577, 6-(8-fluoro-2-(piperidin-4-yl)imidazo[1,2-a]pyridin-6-yl)-2-methyl-[1,2,4]triazolo[1,5-b]pyridazine] | < 100 | 
CC1(C)CC(Oc2ccc(-c3ccc(-c4cn[nH]c4)cc3O)nn2)CC(C)(C)N1 [branaplam] |  | mHTT protein levels (mHTT protein [2]): lowers mHTT protein levels; mHTT protein levels (mHTT protein [3]): lowers mHTT protein levels; mHTT protein levels (mHTT protein [4]): lowers mHTT protein levels

From patent US20250353841A1 (BIOGEN MA INC., priority 2022, published 2025)
